Measurements taken from patent US20230113037A1 (Bayer Aktiengesellschaft, priority 2019, published 2023).

How the values were obtained:
[1] = biological target: T1, AHR (Mus musculus, UniProt P30561); test: In vitro assay 3: antagonism in mouse cell line (AHR transactivation, firefly luciferase reporter, kynurenic acid prestimulated); type: cell-based; details: mouse Hepa 1c1c7 cells, 200 μM kynurenic acid, 20 hours, read-out: AHR Antagonism Mouse IC50
T1 sequence (P30561 1-848 P471L/N533S/M589L): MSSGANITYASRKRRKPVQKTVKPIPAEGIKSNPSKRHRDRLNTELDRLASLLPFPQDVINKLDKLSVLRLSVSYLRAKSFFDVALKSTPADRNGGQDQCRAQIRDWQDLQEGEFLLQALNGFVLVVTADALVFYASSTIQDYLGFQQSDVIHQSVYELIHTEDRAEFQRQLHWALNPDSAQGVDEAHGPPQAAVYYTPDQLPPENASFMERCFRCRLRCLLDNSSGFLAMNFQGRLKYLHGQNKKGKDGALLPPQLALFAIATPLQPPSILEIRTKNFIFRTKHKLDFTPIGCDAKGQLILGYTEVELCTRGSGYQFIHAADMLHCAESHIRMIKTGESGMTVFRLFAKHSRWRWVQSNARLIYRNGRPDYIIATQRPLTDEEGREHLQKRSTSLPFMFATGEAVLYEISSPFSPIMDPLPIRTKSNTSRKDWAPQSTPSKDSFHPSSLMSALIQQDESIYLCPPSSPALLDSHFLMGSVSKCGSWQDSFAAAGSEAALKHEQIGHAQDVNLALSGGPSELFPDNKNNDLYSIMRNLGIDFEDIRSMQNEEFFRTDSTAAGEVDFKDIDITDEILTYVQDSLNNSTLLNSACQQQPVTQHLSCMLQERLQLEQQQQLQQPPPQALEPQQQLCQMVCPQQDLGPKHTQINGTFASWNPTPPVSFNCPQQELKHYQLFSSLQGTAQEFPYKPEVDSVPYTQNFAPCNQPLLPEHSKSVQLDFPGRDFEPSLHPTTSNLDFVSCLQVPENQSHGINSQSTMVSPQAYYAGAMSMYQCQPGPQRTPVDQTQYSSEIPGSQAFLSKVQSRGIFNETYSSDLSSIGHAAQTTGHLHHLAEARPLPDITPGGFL
How it was run: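 Mouse cells stably carrying a DRE-driven AHR-inducible firefly luciferase reporter were prestimulated with the endogenous agonist kynurenic acid before compound addition. Luciferase read by SteadyGlo; cells without kynurenic acid served as full-inhibition control, with normalization to positive and negative controls. Repeat tests reported as mean or median.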

[2] = biological target: T2, AHR (Homo sapiens, UniProt P35869); test: In vitro assay 1: antagonism in human cell line (AHR transactivation, firefly luciferase reporter, kynurenic acid prestimulated); type: cell-based; details: AHR Antagonism Human IC50 [M]
T2 construct: U87 MG glioblastoma cells (ATCC #HTB-14) endogenously expressing AHR; endogenous in cells; host or cells: U87 MG glioblastoma cells (ATCC #HTB-14)
T2 sequence (P35869 11-848): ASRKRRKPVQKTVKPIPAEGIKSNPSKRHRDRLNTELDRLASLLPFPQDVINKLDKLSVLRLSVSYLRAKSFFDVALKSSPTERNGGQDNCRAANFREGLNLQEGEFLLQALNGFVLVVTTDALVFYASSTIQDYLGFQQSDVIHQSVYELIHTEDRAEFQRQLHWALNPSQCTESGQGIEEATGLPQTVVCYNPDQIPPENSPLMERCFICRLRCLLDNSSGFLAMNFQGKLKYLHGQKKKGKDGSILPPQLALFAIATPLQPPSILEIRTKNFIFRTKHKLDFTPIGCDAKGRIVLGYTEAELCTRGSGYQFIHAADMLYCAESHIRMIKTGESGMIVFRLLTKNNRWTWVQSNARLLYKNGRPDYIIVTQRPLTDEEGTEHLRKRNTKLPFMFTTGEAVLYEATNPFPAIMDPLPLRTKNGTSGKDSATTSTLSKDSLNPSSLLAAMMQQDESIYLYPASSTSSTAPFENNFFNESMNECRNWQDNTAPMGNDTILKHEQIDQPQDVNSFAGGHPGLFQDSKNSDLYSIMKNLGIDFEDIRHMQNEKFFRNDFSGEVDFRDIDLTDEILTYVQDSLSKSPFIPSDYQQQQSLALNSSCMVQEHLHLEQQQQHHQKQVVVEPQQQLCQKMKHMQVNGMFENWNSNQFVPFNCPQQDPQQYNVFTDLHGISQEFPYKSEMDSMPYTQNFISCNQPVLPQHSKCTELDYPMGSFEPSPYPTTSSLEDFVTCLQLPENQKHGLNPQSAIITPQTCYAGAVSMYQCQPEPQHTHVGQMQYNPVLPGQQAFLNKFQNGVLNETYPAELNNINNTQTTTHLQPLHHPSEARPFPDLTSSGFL
How it was run: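 U87 MG + DRE-firefly/constitutive-Renilla stable reporters; kynurenic acid prestim; dual-luc read; Renilla = tox; normalized vs pos/neg controls (pos: 150 μM KYNA + 5 μM staurosporine).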

IC50 [1] [nM] | IC50 [2] [M] | Structure (SMILES)
373 | 2.38e-07 | COc1ccc(-c2nc3c4cccc(OC)c4nc(N[C@@H]4CNCCNC4=O)n3n2)cc1 [Example 265, (6R)-6-{[7-methoxy-2-(4-methoxyphenyl)[1,2,4]triazolo[1,5-c]quinazolin-5-yl]amino}-1,4-diazepan-5-one]
2.17 | 3.29e-09 | O=C1NCCNC[C@H]1Nc1nc2c(Br)cccc2c2nc(-c3ccccc3OC(F)(F)F)nn12 [Example 266, (6R)-6-({7-bromo-2-[2-(trifluoromethoxy)phenyl][1,2,4]triazolo[1,5-c]quinazolin-5-yl}amino)-1,4-diazepan-5-one]
3.07 | 6.36e-09 | O=C1NCCNC[C@H]1Nc1nc2c(Br)cccc2c2nc(-c3cccc(F)c3)nn12 [Example 268, (6R)-6-{[7-bromo-2-(3-fluorophenyl)[1,2,4]triazolo[1,5-c]quinazolin-5-yl]amino}-1,4-diazepan-5-one]
0.946 | 7.93e-10 | COc1ccc(-c2nc3c4cccc(Br)c4nc(N[C@@H]4CNCCNC4=O)n3n2)cc1 [Example 270, (6R)-6-{[7-bromo-2-(4-methoxyphenyl)[1,2,4]triazolo[1,5-c]quinazolin-5-yl]amino}-1,4-diazepan-5-one]
13900 | 7.02e-07 | Cc1cccc2c1nc(N[C@@H]1CNCCNC1=O)n1nc(-c3cnn(C)c3)nc21 [Example 271, (6R)-6-{[7-methyl-2-(1-methyl-1H-pyrazol-4-yl)[1,2,4]triazolo[1,5-c]quinazolin-5-yl]amino}-1,4-diazepan-5-one]
4590 | > 2e-05 | COc1ccc(-c2nc3c4ccc(C(F)(F)F)cc4nc(N[C@@H]4CNCCNC4=O)n3n2)cc1 [Example 273, (6R)-6-{[2-(4-methoxyphenyl)-8-(trifluoromethyl)[1,2,4]triazolo[1,5-c]quinazolin-5-yl]amino}-1,4-diazepan-5-one]
2150 | 1.09e-06 | COc1ccc(-c2nc3c4ccc(C)cc4nc(N[C@@H]4CNCCNC4=O)n3n2)cc1 [Example 274, (6R)-6-{[2-(4-methoxyphenyl)-8-methyl[1,2,4]triazolo[1,5-c]quinazolin-5-yl]amino}-1,4-diazepan-5-one]
16.4 | 1.45e-08 | COc1ccc(-c2nc3c4ccc(F)cc4nc(N[C@@H]4CNCCNC4=O)n3n2)cc1 [Example 276, (6R)-6-{[8-fluoro-2-(4-methoxyphenyl)[1,2,4]triazolo[1,5-c]quinazolin-5-yl]amino}-1,4-diazepan-5-one]
15.1 | > 2e-05 | COc1ccc(-c2nc3c4cc(F)ccc4nc(N[C@@H]4CNCCNC4=O)n3n2)cc1 [Example 277, (6R)-6-{[9-fluoro-2-(4-methoxyphenyl)[1,2,4]triazolo[1,5-c]quinazolin-5-yl]amino}-1,4-diazepan-5-one]
51 | 3.72e-07 | COc1ccc(-c2nc3c4cc(Cl)ccc4nc(N[C@@H]4CNCCNC4=O)n3n2)cc1 [Example 278, (6R)-6-{[9-chloro-2-(4-methoxyphenyl)[1,2,4]triazolo[1,5-c]quinazolin-5-yl]amino}-1,4-diazepan-5-one]
180 | 3.08e-07 | COc1ccc(-c2nc3c4cc(OC)ccc4nc(N[C@@H]4CNCCNC4=O)n3n2)cc1 [Example 279, (6R)-6-{[9-methoxy-2-(4-methoxyphenyl)[1,2,4]triazolo[1,5-c]quinazolin-5-yl]amino}-1,4-diazepan-5-one]
625 | 1.36e-06 | COc1ccc(-c2nc3c4c(C(F)(F)F)cccc4nc(N[C@@H]4CNCCNC4=O)n3n2)cc1 [Example 285, (6R)-6-{[2-(4-methoxyphenyl)-10-(trifluoromethyl)[1,2,4]triazolo[1,5-c]quinazolin-5-yl]amino}-1,4-diazepan-5-one]
756 | 6.55e-06 | O=C1NCCNC[C@H]1Nc1nc2cccc(C(F)(F)F)c2c2nc(-c3ccc(F)cc3)nn12 [Example 287, (6R)-6-{[2-(4-fluorophenyl)-10-(trifluoromethyl)[1,2,4]triazolo[1,5-c]quinazolin-5-yl]amino}-1,4-diazepan-5-one]

The remaining lines, values behind:

Structure (SMILES) | IC50 [1] [nM] | IC50 [2] [M]
Cn1cc(-c2nc3c4cccc(Cl)c4nc(N[C@@H]4CNCCNC4=O)n3n2)cn1 [Example 253, (6R)-6-{[7-Chloro-2-(1-methyl-1H-pyrazol-4-yl)[1,2,4]triazolo[1,5-c]quinazolin-5-yl]amino}-1,4-diazepan-5-one] | 36.8 | 2.71e-08
O=C1NCCNC[C@H]1Nc1nc2ccccc2c2nc(-c3ccc(Br)cc3Cl)nn12 [Example 255, (6R)-6-{[2-(4-bromo-2-chlorophenyl)[1,2,4]triazolo[1,5-c]quinazolin-5-yl]amino}-1,4-diazepan-5-one] | 5.1 | 4.98e-08
Cn1ccc(-c2nc3c4ccccc4nc(N[C@@H]4CNCCNC4=O)n3n2)n1 [Example 257, (6R)-6-{[2-(1-methyl-1H-pyrazol-3-yl)[1,2,4]triazolo[1,5-c]quinazolin-5-yl]amino}-1,4-diazepan-5-one] | 12100 | 6.29e-06
O=C1NCCNC[C@H]1Nc1nc2ccccc2c2nc(-c3ccco3)nn12 [Example 258, (6R)-6-{[2-(furan-2-yl)[1,2,4]triazolo[1,5-c]quinazolin-5-yl]amino}-1,4-diazepan-5-one] | 398 | 7.15e-07
O=C1NCCNC[C@H]1Nc1nc2ccccc2c2nc(-c3cccc(F)c3)nn12 [Example 261, (6R)-6-{[2-(3-fluorophenyl)[1,2,4]triazolo[1,5-c]quinazolin-5-yl]amino}-1,4-diazepan-5-one] | 46.6 | 7.39e-08
O=C1NCCNC[C@H]1Nc1nc2ccccc2c2nc(-c3ccccc3C(F)(F)F)nn12 [Example 262, (6R)-6-({2-[2-(trifluoromethyl)phenyl][1,2,4]triazolo[1,5-c]quinazolin-5-yl}amino)-1,4-diazepan-5-one] | 85.7 | 1.37e-06
O=C1NCCNC[C@H]1Nc1nc2ccccc2c2nc(-c3cccc(Cl)c3Cl)nn12 [Example 263, (6R)-6-{[2-(2,3-dichlorophenyl)[1,2,4]triazolo[1,5-c]quinazolin-5-yl]amino}-1,4-diazepan-5-one] | 8.93 | 3.86e-07
O=C1NCCNC[C@H]1Nc1nc2ccccc2c2nc(-c3cn[nH]c3)nn12 [Example 264, (6R)-6-{[2-(1H-pyrazol-4-yl)[1,2,4]triazolo[1,5-c]quinazolin-5-yl]amino}-1,4-diazepan-5-one] | > 20000 | > 2e-05
O=C1NCCNCC1Nc1nc2cccc(Cl)c2c2nc(-c3cccc(F)c3)nn12 (stereo not shown) [Example 284, 6-{[10-chloro-2-(3-fluorophenyl)[1,2,4]triazolo[1,5-c]quinazolin-5-yl]amino}-1,4-diazepan-5-one] | 277 | > 2e-05
Cn1cc(-c2nc3c4c(C(F)(F)F)cccc4nc(N[C@@H]4CNCCNC4=O)n3n2)cn1 [Example 286, (6R)-6-{[2-(1-methyl-1H-pyrazol-4-yl)-10-(trifluoromethyl)[1,2,4]triazolo[1,5-c]quinazolin-5-yl]amino}-1,4-diazepan-5-one] | 3350 | 2.78e-06
